“And” between values parts separate entries of the source, which are not always exact repeats. Equal values may be shown once.
Key:
[1] = test system: Enterococcus faecalis-vancomycin^r; conditions: clinical isolate, Table 7
A. baumannii R16998 = conditions: Gram negative clinical isolate
[2] = test system: Proteus mirabilis ATCC 7002; conditions: Gram negative reference strain
in vitro = format: cell-based; conditions: human; Table 4; tryphan blue exclusion assay for MT2 cells; read-out: Cytotoxicity
Experimental: Cytotoxicity of the various pAACs was determined using the trypan blue exclusion assay. In brief, a sample of the cell suspension was diluted 1:1 (v/v) with 0.4% trypan blue and the cells were counted using a hemocytometer. Results are expressed as the percentage of dead cells.
(§1) HIV-1 isolates were propagated by subculture in MT2 cells (Litovchick et al. (2001) supra). Aliquots of cell-free culture supernatants were used as viral inoculum. PAACs were dissolved in the RPMI 1640 medium. Cytotoxicity determinations were carried out in MT2 cells by trypan blue exclusion assay. Viral inhibition was determined by incubating MT2 or cMAGI HIV-1 reporter cells with 0.2-0.5 multiplicity of infection of HIV-1 wild type or resistant virus for 4 days at 37° C. in the presence or absence of various concentrations of pAACs. HIV-1 infection of cMAGI cells was determined by counting the number of HIV-1-infected cells (stained blue). The cytopathic effects of the viral infection of MT2 cells were also analyzed by microscopic assessment of syncytium formation.

Enterobacter cloacae = conditions: Gram negative clinical isolate
[3] = test system: Acinetobacter baumannii ATCC 19606; conditions: Gram negative reference strain
[4] = test system: Klebsiella pneumoniae ATCC 13883; conditions: Gram negative reference strain
Enterobacter aerogenes [5] = conditions: Gram negative clinical isolate
S. aureus MRSA [6] = conditions: Gram positive clinical isolate
E. Coli B3095141^r [7] = conditions: clinical isolate, Table 7
[8] = test system: Escherichia coli ATCC 25922; conditions: Gram negative reference strain
[9] = test system: P. aeruginosa-gentamicin^s, meropenem^s; conditions: Gram negative clinical isolate
[10] = test system: Enterobacter cloacae W25161; conditions: Gram negative clinical isolate
[11] = test system: K. pneumoniae-ESBL positive; conditions: Gram negative clinical isolate
S. aureus MSSA [12] = conditions: Gram positive clinical isolate
[13] = test system: Staphylococcus aureus ATCC 24213; conditions: Gram positive reference strain
S. epidermidis MRSE [14] = conditions: Gram positive clinical isolate
[15] = test system: Pseudomonas aeruginosa ATCC 27853; conditions: Gram negative reference strain
[16] = test system: A. baumannii-amikacin^r, meropenem^r; conditions: Gram negative clinical isolate
[17] = test system: K. pneumoniae-ESBL negative; conditions: Gram negative clinical isolate
[18] = test system: HIV-1 clinical isolate Clade A; format: cell-based; conditions: Table 4; read-out: EC50 Clade A
Experimental: (§2) Inhibition of HIV-1 cell replication was tested using the cMAGI assay, which is based on the ability of HIV-1 TAT to transactivate the expression of an integrated β-galactosidase reporter gene driven by the HIV-LTR (B. Chackeria et al., J. Virol., (1997) 71, 3932; Collins et al., Nat. Med. (2000) 6, 475). The β-galactosidase reporter is modified to remain localized in the nucleus where it can be detected with the X-gal (5-bromo-4-chloro-3indoyl-β-D-galactopyranoside) substrate as an intense nuclear stain within a few days of infection.
as §1

[19] = test system: HIV-1 NeoR6 resistant virus; format: cell-based; conditions: read-out: EC50 NeoR6^Res; Table 4
Experimental: as §2, §1

HIV-1 Ba-L = format: cell-based; conditions: Table 4
Experimental: as §2, §1

[20] = test system: HIV-1 clinical isolate Clade C; format: cell-based; conditions: Table 4; read-out: EC50 Clade C
Experimental: as §2, §1

[21] = test system: HIV-1 AZT resistant virus; format: cell-based; conditions: Table 4; read-out: EC50 AZT^Res
Experimental: as §2, §1

[22] = test system: HIV-1 Protease resistant virus; format: cell-based; conditions: Table 4; read-out: EC50 Protease^Res
Experimental: as §2, §1

CXCR4 = molecular target: T1, CXCR4 (Homo sapiens, UniProt P61073); assay: Competition with 12G5 mAb binding to CXCR4 on MT2 cells (flow cytometry)
T1 construct: incubated at 4° C. with anti-CXCR4 mAb, 12G5, conjugated to phycoerithrine (PE); endogenous in cells; host or cells: MT2 cells
T1 sequence (P61073 whole entry): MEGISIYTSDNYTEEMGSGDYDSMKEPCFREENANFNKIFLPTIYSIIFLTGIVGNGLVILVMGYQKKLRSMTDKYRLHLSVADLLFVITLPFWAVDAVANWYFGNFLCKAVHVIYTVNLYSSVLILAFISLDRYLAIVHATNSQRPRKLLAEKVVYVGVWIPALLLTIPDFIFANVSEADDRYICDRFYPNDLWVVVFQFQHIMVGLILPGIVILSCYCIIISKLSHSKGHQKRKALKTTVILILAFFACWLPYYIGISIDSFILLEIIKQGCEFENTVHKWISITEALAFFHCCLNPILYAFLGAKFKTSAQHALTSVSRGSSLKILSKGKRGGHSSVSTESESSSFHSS
Experimental: Interaction of pAACs and arginine peptides with CXCR4 coreceptor: Interactions of pAACs and arginine-peptides with CXCR4 were determined by flow cytometry (FACS-Scan, Becton Dickinson) as previously described (Litovich (2001) supra). In brief, 0.5×10^6 MT2 cells were washed with ice-cold PBS containing 0.1% sodium azide (wash buffer) and were incubated at 4° C. with anti-CXCR4 mAb, 12G5, conjugated to phycoerithrine (PE), in the absence or presence of different concentrations of pAACs and arginine peptides. After 30 minutes of incubation, the cells were washed with ice-cold wash buffer and fixed in PBS containing 1% paraformaldehyde. Non-specific fluorescence was assessed using an isotype control. For each sample 10,000 events were acquired. Data were analyzed and processed using CellQuest™ software (Becton Dickinson).

E. Coli-ESBL positive [23] = conditions: Gram negative clinical isolate
S. epidermidis MSSE [24] = conditions: Gram positive clinical isolate
E. Coli-ESBL negative [25] = conditions: Gram negative clinical isolate
[26] = test system: A. baumannii-amikacin^s, meropenem^s; conditions: Gram negative clinical isolate
[27] = test system: P. aeruginosa-gentamicin^r, meropenem^r; conditions: Gram negative clinical isolate
HIV-1 IIIB = assay: microbe, parasite or virus in culture; format: cell-based; conditions: Table 4; read-out: EC50 IIIB
Experimental: as §2, §1

S. epidermidis MRSE [28] = assay: Gentamycin Disk Diffusion test; format: cell-based, Staphylococcus epidermidis; conditions: disk method
[29] = test system: K. pneumoniae-ESBL negative; assay: Gentamycin Disk Diffusion test; format: cell-based, Klebsiella pneumoniae; conditions: disk method
[30] = test system: Enterococcus faecalis-vancomycin^r; assay: Gentamycin Disk Diffusion test; format: cell-based; conditions: disk method
E. Coli B3095141^r [31] = assay: Gentamycin Disk Diffusion test; format: cell-based, Escherichia coli; conditions: disk method
[32] = test system: K. pneumoniae-ESBL positive; assay: Gentamycin Disk Diffusion test; format: cell-based, Klebsiella pneumoniae; conditions: disk method
E. Coli-ESBL positive [33] = assay: Gentamycin Disk Diffusion test; format: cell-based, Escherichia coli; conditions: disk method
Enterobacter aerogenes [34] = assay: Gentamycin Disk Diffusion test; format: cell-based; conditions: disk method
S. aureus MSSA [35] = assay: Gentamycin Disk Diffusion test; format: cell-based, Staphylococcus aureus; conditions: disk method
E. Coli-ESBL negative [36] = assay: Gentamycin Disk Diffusion test; format: cell-based, Escherichia coli; conditions: disk method
[37] = test system: Enterobacter cloacae W25161^r; assay: Gentamycin Disk Diffusion test; format: cell-based; conditions: disk method
[38] = test system: A. baumannii-amikacin^r, meropenem^r; assay: Gentamycin Disk Diffusion test; format: cell-based, Acinetobacter baumannii; conditions: disk method
S. epidermidis MSSE [39] = assay: Gentamycin Disk Diffusion test; format: cell-based, Staphylococcus epidermidis; conditions: disk method
A. baumannii R16998^r = assay: Gentamycin Disk Diffusion test; format: cell-based, Acinetobacter baumannii; conditions: disk method
[40] = test system: A. baumannii-amikacin^s, meropenem^s; assay: Gentamycin Disk Diffusion test; format: cell-based, Acinetobacter baumannii; conditions: disk method
S. aureus MRSA [41] = assay: Gentamycin Disk Diffusion test; format: cell-based, Staphylococcus aureus; conditions: disk method

Compound: CC(=O)N[C@H](CCCNC(=N)N)C(=O)N[C@H](CCCNC(=N)N)C(=O)N[C@H](CCCNC(=N)N)C(=O)N[C@H](CCCNC(=N)N)C(=O)N[C@H](CCCNC(=N)N)C(=O)N[C@H](CCCNC(=N)N)C(=O)N[C@H](CCCNC(=N)N)C(=O)N[C@H](CCCNC(=N)N)C(=O)N[C@H](CCCNC(=N)N)C(=O)NC[C@H]1O[C@H](O[C@H]2[C@H](O)[C@@H](O)[C@H](N)C[C@@H]2N)[C@H](N)[C@@H](O)[C@@H]1O [Compound 13, D-Arg-9-mer-neamine]
- Minimum Inhibitory Concentration [1]: 64.0 mg/liter and 25.70 μM
- Minimum Inhibitory Concentration (A. baumannii R16998): 128.0 mg/liter and 51.41 μM
- Minimum Inhibitory Concentration [2]: 8.0 mg/liter and 3.20 μM
- CC50 (in vitro): 150000 nM
- Minimum Inhibitory Concentration (Enterobacter cloacae): 8.0 mg/liter and 3.20 μM
- Minimum Inhibitory Concentration [3]: 16.0 mg/liter and 6.40 μM
- Minimum Inhibitory Concentration [4]: 1.5 mg/liter and 0.60 μM
- Minimum Inhibitory Concentration (Enterobacter aerogenes [5]): 16 mg/liter and 6.40 μM
- Minimum Inhibitory Concentration (S. aureus MRSA [6]): 1.5 mg/liter and 0.60 μM
- Minimum Inhibitory Concentration (E. Coli B3095141^r [7]): 6.0 mg/liter and 2.40 μM
- Minimum Inhibitory Concentration [8]: 6.0 mg/liter and 2.40 μM
- Minimum Inhibitory Concentration [9]: 48.0 mg/liter and 19.28 μM
- Minimum Inhibitory Concentration [10]: 24.0 mg/liter and 9.64 μM
- Minimum Inhibitory Concentration [11]: 3.0 mg/liter and 1.20 μM
- Minimum Inhibitory Concentration (S. aureus MSSA [12]): 1.5 mg/liter and 0.60 μM
- Minimum Inhibitory Concentration [13]: 2.0 mg/liter and 0.80 μM
- Minimum Inhibitory Concentration (S. epidermidis MRSE [14]): 0.5 mg/liter and 0.20 μM
- Minimum Inhibitory Concentration [15]: 96.0 mg/liter and 38.55 μM
- Minimum Inhibitory Concentration [16]: 96.0 mg/liter and 38.55 μM
- Minimum Inhibitory Concentration [17]: 3.0 mg/liter and 1.20 μM
- EC50 [18]: 5100 ± 2900 nM
- EC50 [19]: 3000 ± 1000 nM
- EC50 (HIV-1 Ba-L): > 50000 nM
- EC50 [20]: 2700 ± 500 nM
- EC50 [21]: 10400 ± 2700 nM
- EC50 [22]: 2400 ± 400 nM
- inhibition at 2 µM (CXCR4; read-out: % Inhibition of 12G5 mAb binding to CXCR4, 2 μM): 67.3%
- inhibition at 10 µM (CXCR4; read-out: % Inhibition of 12G5 mAb binding to CXCR4, 10 μM): 100%
- Minimum Inhibitory Concentration (E. Coli-ESBL positive [23]): 8.0 mg/liter and 3.20 μM
- Minimum Inhibitory Concentration (S. epidermidis MSSE [24]): 0.5 mg/liter and 0.20 μM
- Minimum Inhibitory Concentration (E. Coli-ESBL negative [25]): 6.0 mg/liter and 2.40 μM
- Minimum Inhibitory Concentration [26]: 12.0 mg/liter and 4.8 μM
- Minimum Inhibitory Concentration [27]: 96.0 mg/liter and 38.55 μM
- EC50 (HIV-1 IIIB): 2300 ± 500 nM

Compound: Gentamycin
- Gentamycin (disk): resistance or sensitivity of the tested strain (S. epidermidis MRSE [28]): s (sensitivity of the tested strain (disk method diameter ≧15 millimeters, equivalent to a MIC ≦4 mg/liter))
- Gentamycin (disk): resistance or sensitivity of the tested strain [29]: s (sensitivity of the tested strain (disk method diameter ≧15 millimeters, equivalent to a MIC ≦4 mg/liter))
- Gentamycin (disk): resistance or sensitivity of the tested strain [30]: r (resistance of the tested strain (disk method diameter ≦12 millimeters, equivalent to a MIC ≧8 mg/liter))
- Gentamycin (disk): resistance or sensitivity of the tested strain (E. Coli B3095141^r [31]): r (resistance of the tested strain (disk method diameter ≦12 millimeters, equivalent to a MIC ≧8 mg/liter))
- Gentamycin (disk): resistance or sensitivity of the tested strain [32]: r (resistance of the tested strain (disk method diameter ≦12 millimeters, equivalent to a MIC ≧8 mg/liter))
- Gentamycin (disk): resistance or sensitivity of the tested strain (E. Coli-ESBL positive [33]): r (resistance of the tested strain (disk method diameter ≦12 millimeters, equivalent to a MIC ≧8 mg/liter))
- Gentamycin (disk): resistance or sensitivity of the tested strain (Enterobacter aerogenes [34]): r (resistance of the tested strain (disk method diameter ≦12 millimeters, equivalent to a MIC ≧8 mg/liter))
- Gentamycin (disk): resistance or sensitivity of the tested strain (S. aureus MSSA [35]): r (resistance of the tested strain (disk method diameter ≦12 millimeters, equivalent to a MIC ≧8 mg/liter))
- Gentamycin (disk): resistance or sensitivity of the tested strain (E. Coli-ESBL negative [36]): s (sensitivity of the tested strain (disk method diameter ≧15 millimeters, equivalent to a MIC ≦4 mg/liter))
- Gentamycin (disk): resistance or sensitivity of the tested strain [37]: r (resistance of the tested strain (disk method diameter ≦12 millimeters, equivalent to a MIC ≧8 mg/liter))
- Gentamycin (disk): resistance or sensitivity of the tested strain [38]: r (resistance of the tested strain (disk method diameter ≦12 millimeters, equivalent to a MIC ≧8 mg/liter))
- Gentamycin (disk): resistance or sensitivity of the tested strain (S. epidermidis MSSE [39]): s (sensitivity of the tested strain (disk method diameter ≧15 millimeters, equivalent to a MIC ≦4 mg/liter))
- Gentamycin (disk): resistance or sensitivity of the tested strain (A. baumannii R16998^r): r (resistance of the tested strain (disk method diameter ≦12 millimeters, equivalent to a MIC ≧8 mg/liter))
- Gentamycin (disk): resistance or sensitivity of the tested strain [40]: r (resistance of the tested strain (disk method diameter ≦12 millimeters, equivalent to a MIC ≧8 mg/liter))
- Gentamycin (disk): resistance or sensitivity of the tested strain (S. aureus MRSA [41]): s (sensitivity of the tested strain (disk method diameter ≧15 millimeters, equivalent to a MIC ≦4 mg/liter))

From patent publication US20060166867A1, “Novel conjugates of polysaccharides and uses thereof” (priority 2003, published 2006)
